Laboratory results published in BindingDB's records for doi:10.1039/c2dt30198a (Shanxi University, 2012).

Assays:
[1] = biological target: T1, Tyrosine-protein phosphatase non-receptor type 1 (Homo sapiens, UniProt P18031); assay: PTP inhibition assay; conditions: pH 7.2
T1 sequence (P18031 whole entry): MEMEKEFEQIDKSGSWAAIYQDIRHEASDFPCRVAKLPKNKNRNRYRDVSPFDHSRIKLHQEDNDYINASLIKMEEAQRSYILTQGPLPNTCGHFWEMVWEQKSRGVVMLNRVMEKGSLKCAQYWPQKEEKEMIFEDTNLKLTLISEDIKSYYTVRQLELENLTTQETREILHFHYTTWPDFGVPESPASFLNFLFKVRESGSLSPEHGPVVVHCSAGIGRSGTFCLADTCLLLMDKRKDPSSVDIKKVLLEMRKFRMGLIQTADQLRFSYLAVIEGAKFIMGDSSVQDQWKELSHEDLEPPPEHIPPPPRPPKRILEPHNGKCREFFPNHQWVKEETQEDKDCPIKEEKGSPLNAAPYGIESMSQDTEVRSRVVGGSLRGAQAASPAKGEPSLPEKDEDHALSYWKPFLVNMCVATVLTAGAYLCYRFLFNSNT
Experimental: (§1) The assays were performed in 20 mM MOPS buffer, pH 7.2, containing 50 mM NaCl and 2 mM GSH. Compounds were dissolved in DMSO and diluted to various concentration gradients and further diluted for activity evaluations. Ten microliter of complex was mixed to 82 L enzyme solution for 30 min, followed by addition of 2 L of pNPP (0.1 M) substrate to initiate the reaction. After 30 min at RT, 6 L of 2 M NaOH was added to terminate the reaction. The absorbance was measured at 405 nm.

[2] = biological target: T2, Tyrosine-protein phosphatase non-receptor type 11 (Homo sapiens, UniProt Q06124); assay: PTP inhibition assay; conditions: pH 7.2
T2 sequence (Q06124 whole entry): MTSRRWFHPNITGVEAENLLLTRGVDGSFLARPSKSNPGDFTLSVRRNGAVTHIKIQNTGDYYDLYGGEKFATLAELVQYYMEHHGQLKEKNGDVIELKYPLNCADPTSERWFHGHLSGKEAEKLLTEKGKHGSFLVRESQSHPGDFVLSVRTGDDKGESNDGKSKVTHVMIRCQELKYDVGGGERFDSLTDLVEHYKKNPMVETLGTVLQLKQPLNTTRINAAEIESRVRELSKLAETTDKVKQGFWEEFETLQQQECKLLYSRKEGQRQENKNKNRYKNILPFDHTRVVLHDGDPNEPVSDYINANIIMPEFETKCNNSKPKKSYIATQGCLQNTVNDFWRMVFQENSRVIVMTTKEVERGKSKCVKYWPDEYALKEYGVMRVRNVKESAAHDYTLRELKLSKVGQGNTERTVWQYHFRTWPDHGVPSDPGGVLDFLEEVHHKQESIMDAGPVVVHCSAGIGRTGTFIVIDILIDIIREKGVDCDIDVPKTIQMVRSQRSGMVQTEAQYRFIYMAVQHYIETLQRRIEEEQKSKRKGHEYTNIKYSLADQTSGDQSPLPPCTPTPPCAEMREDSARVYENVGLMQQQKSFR
Experimental: as §1

[3] = biological target: T3, Tyrosine-protein phosphatase non-receptor type 2 (Homo sapiens, UniProt P17706); assay: PTP inhibition assay; conditions: pH 7.2
T3 sequence (P17706 whole entry): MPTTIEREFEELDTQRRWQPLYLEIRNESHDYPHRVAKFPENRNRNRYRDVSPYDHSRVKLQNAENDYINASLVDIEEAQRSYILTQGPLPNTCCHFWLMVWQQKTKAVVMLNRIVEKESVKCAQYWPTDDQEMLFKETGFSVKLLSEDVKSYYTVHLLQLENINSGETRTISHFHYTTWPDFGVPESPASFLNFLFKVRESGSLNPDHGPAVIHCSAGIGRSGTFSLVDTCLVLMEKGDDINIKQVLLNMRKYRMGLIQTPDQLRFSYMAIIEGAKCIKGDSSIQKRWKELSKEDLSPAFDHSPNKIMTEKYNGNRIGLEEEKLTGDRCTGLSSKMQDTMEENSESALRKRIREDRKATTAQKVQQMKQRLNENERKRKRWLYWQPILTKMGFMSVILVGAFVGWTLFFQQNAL
Experimental: as §1

[4] = biological target: Tyrosine-protein phosphatase non-receptor type 6 (Homo sapiens, UniProt P29350); assay: PTP inhibition assay; conditions: pH 7.2
Sequence of Tyrosine-protein phosphatase non-receptor type 6 (P29350 whole entry): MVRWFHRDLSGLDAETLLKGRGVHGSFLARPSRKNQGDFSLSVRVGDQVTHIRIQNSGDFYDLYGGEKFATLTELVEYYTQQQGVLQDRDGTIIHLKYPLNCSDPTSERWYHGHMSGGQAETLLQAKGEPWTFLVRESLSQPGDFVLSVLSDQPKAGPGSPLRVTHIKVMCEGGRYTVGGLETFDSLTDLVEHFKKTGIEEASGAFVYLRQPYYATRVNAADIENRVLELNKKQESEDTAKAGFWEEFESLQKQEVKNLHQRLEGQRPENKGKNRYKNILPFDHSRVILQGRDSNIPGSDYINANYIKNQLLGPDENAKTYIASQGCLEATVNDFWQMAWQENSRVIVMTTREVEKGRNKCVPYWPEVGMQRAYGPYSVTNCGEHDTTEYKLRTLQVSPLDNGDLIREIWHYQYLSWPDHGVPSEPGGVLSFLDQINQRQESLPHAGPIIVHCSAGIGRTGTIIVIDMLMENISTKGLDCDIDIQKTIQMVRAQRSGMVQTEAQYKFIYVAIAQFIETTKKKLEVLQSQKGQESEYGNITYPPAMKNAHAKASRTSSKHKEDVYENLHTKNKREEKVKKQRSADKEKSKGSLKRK
Experimental: as §1

[5] = biological target: Tyrosine-protein phosphatase non-receptor type 9 (PTP-MEG2, Homo sapiens) (UniProt P43378); assay: The assays were performed in 20 mM MOPS buffer, pH 7.2, containing 50 mM NaCl and 2 mM GSH. Compounds were dissolved in DMSO and diluted to various concentration gradients and further diluted for activity evaluations. Ten microliter of complex was mixed to 82 L enzyme solution for 30 min, followed by addition of 2 L of pNPP (0.1 M) substrate to initiat
Sequence of Tyrosine-protein phosphatase non-receptor type 9 (PTP-MEG2, Homo sapiens) (P43378 whole entry, looked up): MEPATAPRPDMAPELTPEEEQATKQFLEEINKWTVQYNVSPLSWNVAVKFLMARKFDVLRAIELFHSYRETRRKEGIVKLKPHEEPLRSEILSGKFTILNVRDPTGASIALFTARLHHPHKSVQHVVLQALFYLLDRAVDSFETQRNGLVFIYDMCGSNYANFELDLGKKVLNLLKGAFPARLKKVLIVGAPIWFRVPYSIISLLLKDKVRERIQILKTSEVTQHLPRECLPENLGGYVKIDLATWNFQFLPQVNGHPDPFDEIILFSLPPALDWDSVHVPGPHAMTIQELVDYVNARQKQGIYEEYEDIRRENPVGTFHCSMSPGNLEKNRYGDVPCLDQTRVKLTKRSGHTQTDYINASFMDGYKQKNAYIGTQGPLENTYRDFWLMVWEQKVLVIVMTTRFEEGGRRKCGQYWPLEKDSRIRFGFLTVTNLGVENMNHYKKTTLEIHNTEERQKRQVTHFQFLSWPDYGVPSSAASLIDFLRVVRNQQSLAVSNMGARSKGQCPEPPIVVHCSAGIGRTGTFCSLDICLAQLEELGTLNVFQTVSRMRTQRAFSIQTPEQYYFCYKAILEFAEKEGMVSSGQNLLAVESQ

Row | IC50 [1] [nM] | IC50 [2] [nM] | IC50 [3] [nM] | IC50 [4] [nM] | IC50 [5] [nM] | Substance
1 | 930 | 2600 | 1400 | 2500 | 3200 | Bis(4-nitro-2-((phenylimino)methyl)phenolate)-oxovanadium(IV) (5)
2 | 690 | 35000 | 1900 | 6500 | 2900 | Bis(4-bromo-2-((phenylimino)methyl)phenolate)-oxovanadium(IV) (4)
3 | 800 | 2300 | 8300 | 1000 | 3600 | Bis(4-chloro-2-((phenylimino)methyl)phenolate)-oxovanadium(IV) (3)
